Test results as given in patent US20250000874A1, “BACTERIAL METABOLITES AND THEIR USE IN REDUCING INFLAMMATION” (LOYOLA UNIVERSITY OF CHICAGO, priority 2023, published 2025).
“Also recorded” adds a separate entry of the source.

How the values were obtained:
[1] = tested on: Bone Marrow Derived Macrophage (BMDM); assay: NC on TNFα production by BMDMs in response to TLR agonists (Example 7); assay type: cell-based, mouse
Procedure: FIG. 32. NC Reduces TNFα Response to Toll 3 Agonist. Macrophages were cultured at a uniform density and allowed to adhere (in the case of BMDMs) or differentiate with PMA (in the case of THP-1s). macrophages were then incubated overnight in NC at a concentration of 50 uM at 37° C. The following day, the BMDMs were stimulated with P(I:C) at 50 ug/mL, 100 ug/mL, or 200 ug/mL for four hours and the THP-1s were stimulated at 200 […]. Supernatants were collected and TNFα concentrations were determined via ELISA.
FIG. 33. TNFα production from Bone Marrow Derived Macrophage (BMDM) stimulation. BMDMs were cultured in DMEM supplemented with Macrophage Colony Stimulating Factor (M-CSF) at 10 ng/ml. The macrophages were then incubated overnight in NC at a concentration of 50 uM at 37° C. The following day they were stimulated with LPS at 1 ng/ml, 10 ng/ml for four hours. Supernatants were collected and TNFα concentrations were determined via ELISA.
Bone marrow derived macrophages were collected from adult mice (6-8 weeks old). Femurs were obtained and cut with scissors. The connecting muscles were removed and the bones were flushed with PBS. PBS was collected and cells were counted and adjusted to the desired concentrations. […] After 7 days the cells were ready for use. […]
Once ready, macrophages were then incubated with NC at a concentration of 50 uM overnight. […] Samples were treated for 4 hours and then Supernatant was then collected and the concentration of TNFα was then determined via the commercially available ELISA MAX Deluxe kit (Biolegend), with measurements reported in pg/mL.
To investigate the effects NC, macrophages were stimulated in vitro with various TLR agonists, and the production of cytokines was measured via ELISA. […] After 4 hours, supernatant was collected and the concentration of TNFα was determined via ELISA.
Further investigation of NC's impact on TLR signaling involved treating BMDMs with the TLR 4 agonist LPS. […] After 4 hours supernatant was collected and concentration of TNFα was measured via ELISA. […]

Raw 264.7 Cells = assay: NC on TNFα release in Raw 264.7 cells in response to TLR agonists; assay type: cell-based, mouse; settings: 50 μM NC 18 hours
Procedure: FIG. 27A and FIG. 27B. Metabolite NC on TNFα release in response to LPS in human and murine macrophages in vitro. Macrophages were plated at a uniform density of 0.2×10^6 cells/mL in 24 well plates. These cells (FIG. 27A) were allowed to adhere, or, in the case of THP-1 cells FIG. 27B), differentiate using PMA. They were then treated for 18 hours with 50 μM of metabolite NC before being stimulated with 0.1 ug of LPS-EK. Supernatant was collected between 4-6 hours after addition of LPS and debris was removed via centrifugation at 1250 rpm for 5 minutes. TNFα was quantified in the supernatant using sandwich ELISA with standards of known concentrations.
FIG. 28A and FIG. 28B. Metabolite NC on TNFα release in macrophages in response to various TLR agonists. Raw 264.7 cells (FIG. 28A) and THP-1 FIG. 28B) cells were plated at a uniform density of 0.2×10^6 cells per mL and stimulated with various TLR agonists: Pam3CSK4, Poly I:C, LPS, Fla, FSL-1, imiquimod (ImiQ), and ODN-2006. NC reduced TNFα release in response to TLR3 (p<0.0001 via student's t-test for both Raw 264.7 cells and THP-1 cells) and TLR4 agonists in both cell lines.
To investigate the effects of compound NC, macrophages were stimulated with LPS, an endotoxin associated with gram-negative bacteria. Human and murine macrophage-like cells (THP-1 cells and Raw 264.7 cells, respectively) were plated in 24 well plates at a uniform density of 0.2×10^6 cells/mL. Following 18 hours of pretreatment with 50 μM metabolite NC, they were stimulated with 10 μg/mL of LPS. After 4-6 hours, supernatant was collected and TNFα was quantified using sandwich ELISA. NC reduces TNFα release from both THP-1 and Raw 264.7 macrophage-like cells in response to TLR4 agonist LPS in vitro.
Metabolite NC reduces inflammation in response to TLR4 agonist LPS. To further investigate the specificity of NC's action in TLR signaling, Raw 264.7 (FIG. 28A) and THP-1 (FIG. 28B) cells were once again plated at a uniform density of 0.2×10^6 cells/mL, treated with 50 μM metabolite NC for 18 hours, and stimulated with agonists for TLR1/2, TLR3, TLR4, TLR5, TLR6/2, TLR7 and TLR9. After 4-6 hours, supernatant was collected and TNFα was quantified via sandwich ELISA.

SMILES: CCCCCCCCCCCCCCCC(=O)N[C@@H](C(=O)O)[C@H](C)O [NC, N-Palmitoyl-D-Threonine]
- production and secretion of TNFα ([1]; NC 50 μM overnight, Poly (I:C) 50, 100, 200 μg/ml, 4 hours): reduced
- production of TNFα ([1]; NC alone, 50 μM overnight): not found to increase
- cytokine (TNFα) production in response to TLR 4 agonist LPS ([1]; NC overnight, LPS 1 ng/ml and 10 ng/ml, 4 hours): able to reduce
- TNFα release in response to TLR3 agonist Poly I:C (Raw 264.7 Cells; 4-6 hours, ELISA): reduced
- TNFα release in response to TLR4 agonist LPS (Raw 264.7 Cells; LPS, 4-6 hours, ELISA): reduced; also recorded: significantly less
- TNFα release in the absence of LPS stimulation (Raw 264.7 Cells; unstimulated): did not increase; also recorded: does not increase
- TNFα release in response to other TLR agonists (Raw 264.7 Cells; TLR1/2, TLR5, TLR6/2, TLR7, TLR9 agonists): did not significantly reduce
